Test results published in PubChem BioAssay AID743417 (Broad Institute, 2014).
Values joined by “and” are separate entries in the source; they are usually repeats but may differ in a detail not shown here. Equal entries are not always repeated. Inconclusive results are not listed. Active and inactive are the calls of the source.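 How the source made its calls: active means compounds lowering the luciferase signal with a fitted half-maximal dose at most twice their top valid dose (cut at about 30 µM in these data); inconclusive means flat fits with moderate signal loss, or poor fits; inactive means the rest.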

system: Clone20 osteoblast Shn3 3'UTR firefly luciferase, 24 h; assay: Schnurri-3 3'UTR-luciferase signal suppressors – cell-based, Clone20 osteoblasts, luminescence, dry powder, set 2, dose response (AID 743417)

Compared with CCOc1cc(/C=C2\C(=O)ON=C2C)ccc1OCc1ccccc1, COc1ccc(OC)c(NC(=O)c2nc(S(=O)(=O)Cc3ccccc3)ncc2Cl)c1 is 5-fold lower in AC50: 10.4 µM for the first, 2.08 µM for the second.

First: Cn1nc(C(C)(C)C)cc1C(=O)N1CCCCC1c1cc(C(=O)Nc2ccc(F)c(Cl)c2)no1 (centres undefined)
Second: CC(=O)N1CCN(c2ccc(NC(=O)c3ccc([N+](=O)[O-])o3)cc2Cl)CC1
The AC50 of the first is 2.8-fold higher: 3.04 µM for the first, 1.08 µM for the second.

First: CC(=O)N1c2ccc(S(=O)(=O)N3CCC(C(=O)N4CCN(c5ccccc5F)CC4)CC3)cc2CC1C (centres undefined)
Second: Cc1ccc(NC(=O)C2CCN(S(=O)(=O)c3ccc4c(c3)NC(=O)C(C)S4)CC2)cc1C (centres undefined)
The AC50 of the first is 2.1-fold higher: 5.41 µM for the first, 2.61 µM for the second.

CC(C)(C)NCC(=Cc1ccccc1)C(=O)c1ccccc1 and CC(C)N(CCC(=O)c1ccc2ccccc2c1)Cc1ccccc1 are within 1.5-fold of each other in AC50: 4.51 µM for the first, 4.22 µM for the second.

CSc1nnc(NC(=O)c2nc(S(=O)(=O)Cc3ccccc3)ncc2Cl)s1 and O=C(NCc1ccccc1)c1nc(S(=O)(=O)Cc2ccccc2)ncc1Cl are within 1.5-fold of each other in AC50: 1.35 µM for the first, 1.19 µM for the second.

First: O=C1ON=C(c2ccccc2)/C1=C/c1ccc(-c2ccccc2[N+](=O)[O-])o1
Second: O=[N+]([O-])c1cccnc1S(=O)(=O)c1ccccc1
The AC50 of the first is 1.5-fold higher: 7.21 µM for the first, 4.79 µM for the second.

Going from CCOc1ccc2nc(SC3CC(=O)N(c4ccc(C)cc4)C3=O)sc2c1 (centres undefined) to CCOC(=O)c1c(C)[nH]c(C)c1C(=O)CSc1nc2ccccc2c(=O)n1-c1ccc(CC)cc1, the AC50 falls from 15.6 µM to 5.36 µM (2.9-fold).

Going from C=C1C(=O)OC2CC3(C)OC3C3OC3C3=CC(OC3=O)C12 (centres undefined) to C[C@@H]1C[C@@H]2O[C@H]2/C=C\C=C\C(=O)Cc2c(Cl)c(O)cc(O)c2C(=O)O1, the AC50 rises from 1.45 µM to 6.4 µM (4.4-fold).

First: O=C(Nc1nc(-c2ccccn2)cs1)c1ccc(F)c(S(=O)(=O)N2CCOCC2)c1
Second: Cc1ccc(C(=O)Nc2nc(-c3ccccn3)cs2)cc1S(=O)(=O)N1CCOCC1
The AC50 of the first is 1.6-fold higher: 1.32 µM for the first, 0.838 µM for the second.

Going from CCCCNc1c(-c2ccc(OC)c(Sc3ccc(OC)cc3)c2)nc2ccccn12 to COc1ccc(-c2nc(-c3ccccn3)no2)cc1, the AC50 rises from 0.821 µM to 1.92 µM (2.3-fold).

Compared with CC(C)CCOc1cccc(OCC(=O)Nc2ccncc2)c1, CC(C)Cc1ccc(C(C)C(=O)Nc2ccccc2O)cc1 (centres undefined) is 3.3-fold higher in AC50: 0.571 µM for the first, 1.89 µM for the second.

Compared with CC(C)(C)[C@@H]1COC(=O)[C@@H](NC(=O)OCC2c3ccccc3-c3ccccc32)C/C=C\C[C@@H](CC(=O)NCCO)C(=O)N1, O=C(Cn1cc(C(=O)C2CC2)c2ccccc21)Nc1ccccc1Cl is 6.5-fold lower in AC50: 22.1 µM for the first, 3.42 µM for the second.

First: CCOC(=O)c1nc(S(C)(=O)=O)ncc1Cl
Second: CCOC(=O)CS(=O)(=O)c1nc(-c2ccccc2)cc(C(F)(F)F)n1
The AC50 of the first is 1.9-fold higher: 6.37 µM for the first, 3.42 µM for the second.

Going from COc1cc(OC)c(OC)cc1CNC(=O)c1cccc(S(=O)(=O)N2CCc3ccccc3C2)c1 to COc1cc(OC)c(OC)cc1CCC(C)NCCC(c1ccccc1)c1ccccc1 (centres undefined), the AC50 rises from 2.39 µM to 3.99 µM (1.7-fold).

Compared with O=C(Nc1ccc(N2CCN(C(=O)c3ccc(Cl)cc3)CC2)cc1)c1ccc2c(c1)OCCO2, O=C(c1ccc(Cn2c(=S)[nH]c3ccccc3c2=O)cc1)N1CCN(c2ccccn2)CC1 is 2.5-fold higher in AC50: 2.54 µM for the first, 6.34 µM for the second.

First: COCC1CCCCN1C(=O)c1cc(COc2ccc3ncccc3c2)on1 (centres undefined)
Second: C#CC(=O)N(c1cc(OC)ccc1OC)C(C(=O)NC1CCCC1)c1cccs1 (centres undefined)
The AC50 of the first is 14-fold lower: 0.33 µM for the first, 4.57 µM for the second.

Going from CC1C(OC(=O)CCC(=O)NC(C)(C)CO)O[C@H]2OC3(C)CC[C@H]4[C@H](C)CCC1C24OO3 (some centres undefined) to CC1CN(C(=O)CCc2cc(C(C)(C)C)c(O)c(C(C)(C)C)c2)CC(C)O1 (centres undefined), the AC50 rises from 0.495 µM to 2.56 µM (5.2-fold).

Going from COc1ccc(NC(=O)CCOc2cc(C)ccc2C)cc1S(=O)(=O)N1CCCCC1 to Cc1ccc(S(=O)(=O)N2CCCCC2)cc1NC(=O)Cn1ncc(Cl)c(Cl)c1=O, the AC50 falls from 10.4 µM to 4.32 µM (2.4-fold).

First: Nc1nc(N)c2cc(CNc3ccc(Cl)c(Cl)c3)ccc2n1
Second: Fc1ccc2[nH]c3c(NCc4ccccc4)ncnc3c2c1
The AC50 of the first is 3.2-fold lower: 0.956 µM for the first, 3.09 µM for the second.

First: O=C1CCc2cccc(O)c2N1
Second: O=c1[nH]c(Nc2nc3ccccc3o2)nc2c1CCCC2
The AC50 of the first is 1.6-fold higher: 12.2 µM for the first, 7.71 µM for the second.

First: CCCCNS(=O)(=O)c1ccc(S(=O)(=O)NCc2ccncc2)cc1
Second: O=C(Nc1ccc2oc(-c3ccncc3)nc2c1)c1ccc([N+](=O)[O-])o1
The AC50 of the first is 7.8-fold lower: 2.4 µM for the first, 18.6 µM for the second.

First: COc1cc2ncnc(N[C@H](C)c3ccccc3)c2cc1OC
Second: COc1ccc(CCNc2ncnc3sc(C)cc23)cc1OC
The AC50 of the first is higher: 8.72 µM for the first, < 0.26 µM for the second.

Compared with COc1ccc(C2/C=C\CN(C(=O)c3ccc(C)cc3)[C@H](Cc3ccccc3)C(=O)N2Cc2ccc(F)cc2)cc1 (some centres undefined), C=CCC[C@H](Cc1ccc(F)cc1)C(=O)OC[C@@H](Cc1c[nH]c2ccccc12)NC(=O)[C@H](CC=C)CC(=O)N(CCO)Cc1ccccc1 is 11-fold higher in AC50: 0.772 µM for the first, 8.66 µM for the second.

CCn1c(=NC(=O)CS(=O)(=O)c2ccccc2)sc2cccc(OC)c21 and O=C(NNC(=O)c1cccc(S(=O)(=O)N2CCc3ccccc32)c1)c1ccccc1 are within 1.5-fold of each other in AC50: 1.68 µM for the first, 1.52 µM for the second.

Going from CC1C(=O)N(Cc2cn(CCC3OCCCO3)nn2)CCS(=O)(=O)N1Cc1ccc(-c2ccc(Cl)c(Cl)c2)cc1 (centres undefined) to COCOCCn1cc(CN2CCS(=O)(=O)N(Cc3ccc(-c4ccc(Cl)c(Cl)c4)cc3)C(C(C)C)C2=O)nn1 (centres undefined), the AC50 falls from 3.39 µM to 1.35 µM (2.5-fold).

Compared with C=C1CC2(CC(c3ccccc3)OC(c3ccccc3)C2)OC1=O (centres undefined), Oc1ccccc1Nc1nc(NCc2ccccc2)c2ccccc2n1 is 4.3-fold higher in AC50: 2.49 µM for the first, 10.7 µM for the second.

Going from CN(C)c1ccc(C=Cc2ccnc3c(O)cccc23)cc1 to Cc1cccc(CSc2cccc3cccnc23)c1, the AC50 rises from 1.43 µM to 2.54 µM (1.8-fold).

Going from CCCCc1ccc(NC(=O)C(=O)NCCN2CCN(Cc3ccc([N+](=O)[O-])cc3)CC2)cc1 to O=[N+]([O-])c1ccc2ncnc(N3CCN(Cc4ccc5c(c4)OCO5)CC3)c2c1, the AC50 rises from 1.13 µM to 2.73 µM (2.4-fold).

First: CCN(C(=O)c1ccc(C(C)(C)C)cc1)c1nnc(Cn2nnc3ccccc32)s1
Second: COc1cc(SC)ccc1C(=O)Nc1nc2ccccc2[nH]1
The AC50 of the first is higher: 1.35 µM for the first, < 0.26 µM for the second.

First: OC1(c2cccc(C(F)(F)F)c2)CCN(c2ncnc3c2[nH]c2ccc(F)cc23)CC1
Second: Cc1sc2ncnc(N3CCN(S(=O)(=O)c4ccc(Br)cc4)CC3)c2c1C
The AC50 of the first is 1.9-fold lower: 1.87 µM for the first, 3.59 µM for the second.

Going from CC(C)C[C@@H](CO)N(Cc1ccccc1)S(=O)(=O)N(Cc1ccccc1)[C@H](CO)CC(C)C to CC(C)c1ccc(/C=C(\c2nc3ccccc3[nH]2)S(=O)(=O)c2ccccc2)cc1, the AC50 falls from 10.1 µM to 4.01 µM (2.5-fold).

Going from Cc1ccc(Nc2nc(NCC3CC3)nc3ccsc23)c(C)c1 to Cc1cc(C)n(-c2ccc3cccc(NS(C)(=O)=O)c3n2)n1, the AC50 falls from 5.82 µM to 1.32 µM (4.4-fold).

First: O=C(c1nnsc1S(=O)c1ccc(Cl)cc1)N1CCOCC1 (centres undefined)
Second: O=C(Nc1nc(-c2ccccc2)cs1)c1ccc(N2CCOCC2)c([N+](=O)[O-])c1
The AC50 of the first is 4-fold lower: 0.93 µM for the first, 3.75 µM for the second.

Cc1cc(C)n2nc(SCC(=O)c3cc(C)n(-c4cc(C)on4)c3C)nc2n1 and CC1=C(C(=O)NC2CCCc3c2cnn3-c2cccc(C)c2C)OCCO1 (centres undefined) are within 1.5-fold of each other in AC50: 2.46 µM for the first, 3.49 µM for the second.

Going from CCCCn1c(CN(C)Cc2ccccc2)nc2c1c(=O)n(C)c(=O)n2C to CN(C)CCNC(=O)c1cccc2nc3cccc(F)c3nc12, the AC50 rises from 2.38 µM to 13.7 µM (5.8-fold).

First: COc1cc(N2C(=O)C=CC2=O)ccc1N1C(=O)C=CC1=O
Second: Cc1ccc2cc(CN(CC3CCCO3)C(=O)NC3CCCCC3)c(=O)[nH]c2c1C (centres undefined)
The AC50 of the first is 1.9-fold lower: 2.32 µM for the first, 4.49 µM for the second.

O=C1[C@H]2[C@@H](c3ccc(F)cc3)N3C(=O)N(c4ccccc4)C(=O)[C@@]3(Cc3ccccc3)[C@H]2C(=O)N1C1CCCCC1 was tested, and the AC50 was > 70 µM (inactive).
With CCN1CCN(Cc2ccc(NC(=O)c3cc(NC(=O)c4cc5cccc(OC)c5o4)cc(OC)c3)cc2C(F)(F)F)CC1 the AC50 was 10.2 µM and 9.77 µM.
